Test results reported in patent EP4417616A1, “LXR ANTAGONISTS” (Ospedale San Raffaele S.r.l., priority 2023, dated 2024).
Entries after “also recorded” stand apart in the source; their conditions may differ.

Legend:
[1] = molecular target: T1, LXRα (Homo sapiens, UniProt Q13133); assay: Luciferase-based reporter assay for LXRα transcriptional activity (HEK293, Gal4-LXRα); format: cell-based; conditions: for antagonism of LXRα activation induced by 22R-HC: 22R-HC 5 or 10 µM, titrating amounts of compound (1-50 µM)
T1 construct: expressed in transfected cells; host or cells: HEK293
T1 sequence (Q13133 1-447): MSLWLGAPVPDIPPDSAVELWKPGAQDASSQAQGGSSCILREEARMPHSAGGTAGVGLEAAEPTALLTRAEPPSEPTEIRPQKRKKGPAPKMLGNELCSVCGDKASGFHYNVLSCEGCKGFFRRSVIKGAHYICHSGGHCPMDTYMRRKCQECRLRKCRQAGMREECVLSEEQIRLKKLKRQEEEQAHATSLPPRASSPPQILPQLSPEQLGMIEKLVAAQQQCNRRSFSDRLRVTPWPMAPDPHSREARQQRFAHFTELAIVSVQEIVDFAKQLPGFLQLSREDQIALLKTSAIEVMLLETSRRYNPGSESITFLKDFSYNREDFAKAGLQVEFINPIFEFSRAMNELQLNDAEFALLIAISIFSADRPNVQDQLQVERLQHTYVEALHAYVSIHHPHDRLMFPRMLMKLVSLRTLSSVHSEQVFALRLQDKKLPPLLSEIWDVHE
Experimental: Reporter assay for nuclear receptor transcriptional activity. Human embryonic Kidney 293 cells (American Type Culture Collection) were cultured in Dulbecco's Modified Eagle's medium containing 10% of fetal bovine serum at 37°C in humidified atmosphere of 5% CO2. HEK293 cells (4×10^4 cells per well) were transiently transfected in 48 well plate with the reporter plasmids pMH100X4-TK-luc (100 ng/300µl), Renilla (22 ng/300µl) together with 100 ng/300µl of pCMX-Gal4-LXRα or pCMX-Gal4-LXRβ plasmids using X-tremeGENE 9 DNA Transfection Reagent (Roche). Six hours after transfection, the cells were treated with the appropriate compound for 24 hours. Luciferase activities were analyzed by luciferase Dual Reporter Assay Systems (Promega) according to the manufacturer's protocol. GAL4-LXRs, and TK-MHC100-luc plasmids were described in^7. […] Six hours after transfection, the cells were treated with the appropriate compound for 40 hours. Luciferase activity was analyzed as described above and protein content spectrophotometrically using Coomassie Plus Protein assay reagent (Thermo Scientific). Quantitative Real-Time-PCR. U937 cell line was differentiated in foam macrophages with phorbol 12-myristate 13-acetate (PMA) 10 ng/ml (Sigma) for 72 hours at 37°C in RPMI 10% FBS. At day 3 T0901317 (10 µM) or different amount of PFM037 (50, 25 and 10 µM) were added for 16 hours. Total RNA was purified by TRIZOL (Invitrogen). Reverse transcription was performed by MLV-reverse transcriptase (Promega). QPCR was performed using SYBR Green Master Mix (Applied Biosystems) and real-time PCR (Viia 7 Real Time PCR System, Applied Biosystems). PCR reactions were done in triplicate.

[2] = tested on: LLC tumor cells; assay: In vitro growth of LLC tumor cells; format: cell-based, mouse; conditions: compared with vehicle
[3] = tested on: Lewis Lung Carcinoma (LLC); assay: Treatment of LLC tumor-bearing mice; format: in vivo
Text: Tumor challenge experiments.

[4] = tested on: RMA lymphoma; assay: Treatment of RMA tumor-bearing mice; conditions: 300 µg i.v. 5 days/week
Experimental: Analysis of tumor infiltrating cells by flow cytometry. […] Tumors collected 7, 10, 12 or 14 days after injection were cut into small fragments and digested with Liberase TL (66 µg/ml, Roche) and DNAse I (150 µg/ml, Roche) for 25-30 minutes at 37 °C. Digested tissues were filtered by using a 75 µm diameter cell strainer. Single cell suspensions were stained with Live/Dead Violet kit reagents (Molecular Probes) for 30 minutes at 4°C. After washing, the cells were incubated for 5-10 minutes at RT with Fc-blocking solution (Anti-CD16/32, 10 µg/ml mouse Fc Block, BD) and then stained with various antibodies incubated at 4°C for 20 minutes. […] CD209a (5H10), CCR7 (4b12) and F4/80 (BM8) were from eBioscience. Rat IgG, Rat IgG2a, Rat IgG2b, Rat IgM and Hamster isotype control mAbs were used as controls (Biolegends and BD Biosciences). For intracellular staining, cells were incubated with PMA (100 ng/ml) and ionomycin (500 ng/ml) in the presence of 10 µg/ml of Brefeldin for 4 hours. Cells were then fixed using the IC Fixation buffer (eBioscience), permeabilized with 1x Permeabilization buffer (eBiosciences) and stained with anti-IFNy mAb. Samples were run by FACSCanto flow cytometer and analyzed by FlowJo software gating on live cells. FACS sorting was performed by using the FACSAria Fusion (BD)
Tumor challenge experiments. C57BL/6 mice were injected subcutaneously with LLC-Mock (1 ×10^6), LLC-SULT2B1b (1 ×10^6), RMA (2 ×10^5), or B16F1-OVA (2 ×10^5) tumor cells. […] Tumor size was evaluated by measuring perpendicular diameters by a caliper every 2-3 days. Data are reported as the average tumor volume ± SD. In selected experiments tumors were injected in Ccr2^-/-mice.
Treatment of tumor-bearing mice with LXR antagonists alone or with immunotherapy. Tumor-bearing mice were treated with 25-HC-3S or PFM037 6-7 days after tumor challenge. After 6-7 days, mice were randomly assigned to either treatment or vehicle groups. Mice were injected with 300 µg of either compound given i.v. for 5 days/week. […] B16F1-OVA-bearing mice were treated with 400 µg of PFM037 for 5 days/week. For controls of mAb experiments, mice were injected with 250 µg of rat IgG2a isotype control antibody. […] Tumors were collected and measured 14 days after tumor challenge.

[5] = molecular target: T2, LXRβ-LBD (Homo sapiens, UniProt P55055); assay: Mammalian two-hybrid assay, RAP250-Del4 with pVP16-LXRβ-LBD; format: cell-based; conditions: ligand alone, 10 µM; Huh7 cells
T2 construct: expressed in transfected cells; host or cells: Huh7 (printed 'Hhu7') human liver cell line
T2 sequence (P55055 222-460 limits assumed): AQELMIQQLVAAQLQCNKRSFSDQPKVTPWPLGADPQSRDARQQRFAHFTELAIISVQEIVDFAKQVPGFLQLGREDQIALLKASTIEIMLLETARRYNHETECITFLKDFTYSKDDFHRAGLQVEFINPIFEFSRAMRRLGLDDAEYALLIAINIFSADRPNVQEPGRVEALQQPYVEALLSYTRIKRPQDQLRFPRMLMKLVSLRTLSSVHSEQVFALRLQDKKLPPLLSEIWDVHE

[6] = molecular target: T3, LXRα-LBD (Homo sapiens, UniProt Q13133); assay: Mammalian two-hybrid assay, RAP250-Del4 with pVP16-LXRα-LBD; format: cell-based; conditions: ligand alone, 10 µM; Huh7 cells
T3 construct: expressed in transfected cells; host or cells: Huh7 (printed 'Hhu7') human liver cell line
T3 sequence (Q13133 209-447 limits assumed): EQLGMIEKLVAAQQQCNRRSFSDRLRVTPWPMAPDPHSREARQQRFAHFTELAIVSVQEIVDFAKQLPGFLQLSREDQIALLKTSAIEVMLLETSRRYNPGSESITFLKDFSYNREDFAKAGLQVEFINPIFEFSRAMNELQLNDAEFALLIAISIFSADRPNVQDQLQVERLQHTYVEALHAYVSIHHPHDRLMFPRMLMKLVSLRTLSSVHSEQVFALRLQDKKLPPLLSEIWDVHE

[7] = LLC-bearing mice, 300 µg i.v. 5 days/week from day 6-7, vs vehicle

SMILES: CC(C)CC[C@H](O)[C@@H](C)[C@H]1CC[C@H]2[C@@H]3CC=C4C[C@@H](O)CC[C@]4(C)[C@H]3CC[C@]12C [22S-HC, 22S-hydroxycholesterol]
- antagonism of LXRα activation induced by 22R-HC [1]: does not antagonize; also recorded: did not antagonize

SMILES: C[C@H](CCCC(C)(C)O)[C@H]1CC[C@H]2[C@@H]3CC=C4C[C@@H](OS(=O)(=O)O)CC[C@]4(C)[C@H]3CC[C@]12C [25-HC-3S, 25-Hydroxycholesterol-3-sulfate, reference compound]
- in vitro growth of LLC tumor cells [2]: grew in a similar manner
- absolute numbers of tumor-infiltrating mono-DCs [3, 7]: Higher
- tumor growth [3, 7]: delay of tumor growth
- numbers of tumor-infiltrating mono-DCs [4]: Higher
- tumor growth ([4]; tumor weight at sacrifice): tumor growth control
- IC50 [1]: 12.7 µM
- antagonism of LXRα activation induced by 22R-HC [1]: antagonized the LXRα activity in a dose-dependent manner

SMILES: CC(C)CC[C@@H](O)[C@@H](C)[C@H]1CC[C@H]2[C@@H]3CC=C4C[C@@H](O)CC[C@]4(C)[C@H]3CC[C@]12C [22R-HC]
- luciferase activity [5]: induced luciferase activity
- luciferase activity [6]: induced luciferase activity

SMILES: C[C@@H]([C@H]1CC[C@H]2[C@@H]3CC=C4C[C@@H](O)CC[C@]4(C)[C@H]3CC[C@]12C)[C@@H](O)Cc1ccccc1 [PFM046, (22S)-23-Phenyl-24-norchol-5-en-3β,22-diol]
- tumor growth ([3]; established LLC tumors, 300 µg/mouse every other day, Fig. 24B): able to control LLC tumor growth; also recorded: controls tumor growth
